Like-named read-outs stand apart in the source and are kept apart here.
Columns and labels:
HTT mRNA = experiment: RT-qPCR splicing assay, HTT mRNA canonical (CJ) and alternative (AJ) junction; type: cell-based, human; conditions: Homo sapiens
Method in brief: (§1)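 Both isoforms, CJ and AJ, read by qPCR from crude lysates of treated A673 or K562 cells; 24 h, 37 °C, maximum 10 uM. Normalization: housekeeper ΔCt, then DMSO ΔΔCt.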

MYB mRNA = experiment: RT-qPCR splicing assay, MYB mRNA canonical (CJ) and alternative (AJ) junction; type: cell-based, human; conditions: Homo sapiens
Method in brief: as §1

Target C [1] = experiment: RT-qPCR canonical junction panel assay, Target C mRNA; type: cell-based; conditions: Table 4, read-out: Target C IC50 (decrease in CJ mRNA levels)
Experimental: Compounds described herein were used to modulate RNA transcript abundance in cells. The expression of a target mRNA was measured by detecting the formation of an exon-exon junction in the canonical transcript (CJ). A compound mediated exon-inclusion event was detected by observing an increase in formation of a new junction with an alternative exon (AJ). Real-time qPCR assays were used to detect these splicing switches and interrogate the potency of various compounds towards different target genes. A high-throughput real time quantitative PCR (RT-qPCR) assay was developed to measure these two isoforms of the mRNA (CJ and AJ) for exemplary genes, such as HTT, SMN2, and MYB, together with a control housekeeping gene, GAPDH or GUSB or PPIA, used for normalization. Briefly, the A673 or K562 cell line was treated with various compounds described herein (e.g., compounds of Formula (I)). After treatment, the levels of the HTT, MYB, or SMN2 mRNA targets were determined from each sample of cell lysate by cDNA synthesis followed by qPCR.
The data analysis was performed by first determining the ΔCt vs the housekeeper gene. This ΔCt was then normalized against the DMSO control (ΔΔCt) and converted to RQ (relative quantification) using the 2^(−ΔΔCt) equation. The RQ were then converted to a percentage response by arbitrarily setting an assay window of 3.5 and 4.0 ΔCt for HTT-CJ and MYB-CJ respectively and an assay window of 9 and 3 ΔCt for HTT-AJ and MYB-AJ in 96 well format (50,000 K562 cells/well and 15,000 A673 cells per well) and an assay window of 3 and 4 ΔCt for HTT-CJ and MYB-CJ respectively and an assay window of 5 and 3 ΔCt for HTT-AJ and MYB-AJ respectively in 384 well format (8,000 K562 cells/well example). […] The percentage response was then fitted to the 4 parametric logistic equation to evaluate the concentration dependence of compound treatment. The increase in AJ mRNA is reported as AC50 (compound concentration having 50% response in AJ increase) while the decrease in CJ mRNA levels is reported as IC50 (compound concentration having […] in CJ decrease).
Additional studies were carried out for a larger panel of genes using the protocol provided above. The junction between flanking upstream and downstream exons was used to design canonical junction Qpcr assays. At least one of the forward primer, reverse primer or the CY5-labeled 5′ nuclease probe (with 3′ quencher such as ZEN/Iowa Black FQ) was designed to overlap with the exon junction to capture the CJ Mrna transcript. BLAST was used to confirm the specificity of the probeset and parameters suCH As melting temperature, GC content, amplicon size, and primer dimer formation are considered during their design. Data for the decrease in CJ Mrna levels for four exemplary genes (HTT, SMN2, MYB, and Target C) analyzed in this panel are reported as IC50 (compound concentration having […] in CJ decrease).

K562 cells = experiment: Cell Titer Glo 2.0 cell viability (toxicity) assay, K562; conditions: 500 cells/well, 72 hours
SMN2 mRNA = experiment: RT-qPCR splicing assay, SMN2 mRNA; type: cell-based, human; conditions: Homo sapiens, canonical junction qPCR panel, Table 4; read-out: SMN2 IC50 (decrease in CJ mRNA levels)
Method in brief: as §1

MYB = experiment: HiBiT protein abundance assay, MYB (K562 HiBiT knock-in); type: cell-based, human; conditions: HiBiT knock-in K562 cells, 24 hours, top dose 10 μM
Method in brief: (§2)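 Tagged-protein levels were measured as HiBiT/LgBiT luminescence in lysed K562 knock-in cells exposed to serially diluted compound (up to 10 μM final) for 24 hours. A four-parameter logistic regression of control-normalized signal yielded the IC50.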

HTT = experiment: HiBiT protein abundance assay, HTT (K562 HiBiT knock-in); type: cell-based, human; conditions: HiBiT knock-in K562 cells, 24 hours, top dose 10 μM
Method in brief: as §2

Target C [2] = experiment: HiBiT protein abundance assay, Target C (K562 HiBiT knock-in); type: cell-based, human; conditions: HiBiT knock-in K562 cells, 24 hours, top dose 10 μM
Method in brief: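 K562 HiBiT knock-in cells (10000/well) were treated 24 h at 37° C with a 10-point 3-fold dilution series (top 10 μM final, ≤0.25% DMSO). HiBiT luminescence was read after lytic LgBiT detection. Percent response used unmodified K562 and DMSO-treated knock-in controls, and IC50 came from a four-parameter fit at 50% of untreated.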

[3] = RT-qPCR, HTT alternative junction mRNA increase, read-out: HTT AJ (increase in alternative junction mRNA, AC50)
[4] = RT-qPCR, HTT canonical junction mRNA decrease, read-out: HTT CJ (decrease in canonical junction mRNA, IC50)
[5] = canonical junction qPCR panel, Table 4, read-out: HTT IC50 (decrease in CJ mRNA levels)
[6] = RT-qPCR, MYB alternative junction mRNA increase, read-out: MYB AJ (increase in alternative junction mRNA, AC50)
[7] = RT-qPCR, MYB canonical junction mRNA decrease, read-out: MYB CJ (decrease in canonical junction mRNA, IC50)
[8] = canonical junction qPCR panel, Table 4, read-out: MYB IC50 (decrease in CJ mRNA levels)
[9] = HTT alternative junction mRNA, RT-qPCR, read-out: HTT AJ (increase in AJ mRNA, AC50)
[10] = HTT canonical junction mRNA, RT-qPCR, read-out: HTT CJ (decrease in CJ mRNA levels, IC50)
[11] = MYB alternative junction mRNA, RT-qPCR, read-out: MYB AJ (increase in AJ mRNA, AC50)
[12] = MYB canonical junction mRNA, RT-qPCR, read-out: MYB CJ (decrease in CJ mRNA levels, IC50)

| Structure (SMILES) | AC50 (HTT mRNA; [3]) | IC50 (HTT mRNA; [4]) | IC50 (HTT mRNA; [5]) | AC50 (MYB mRNA; [6]) | IC50 (MYB mRNA; [7]) | IC50 (MYB mRNA; [8]) | IC50 (Target C [1]) | Effect of Exemplary Compounds on Cell Viability, K562 (K562 cells) | AC50 (HTT mRNA; [9]) | IC50 (HTT mRNA; [10]) | AC50 (MYB mRNA; [11]) | IC50 (MYB mRNA; [12]) | IC50 (SMN2 mRNA) | IC50 (MYB) | IC50 (HTT) | IC50 (Target C [2]) |
| --- | --- | --- | --- | --- | --- | --- | --- | --- | --- | --- | --- | --- | --- | --- | --- | --- |
| Cc1c(O)c(-c2nc(C3CCC3)c3cc(N4C[C@H](C)N[C@@H](C)C4)ccc3n2)cc2cn(C)nc12 (single isomer, unassigned) [Compound 794] | 1000 to 10000 nM | > 10000 nM | > 10000 nM | 100 to 1000 nM | 100 to 1000 nM | 100 to 1000 nM | > 10000 nM | B (B represents 100-1000 nM) |  |  |  |  |  |  |  |  |
| Cc1cn2nc(-c3ncc4cc(N5C[C@H](C)N[C@@H](C)C5)ccc4n3)cc(C)c2n1 (single isomer, unassigned) [Compound 798] | > 10000 nM | > 10000 nM | > 10000 nM | 100 to 1000 nM | 1000 to 10000 nM | 1000 to 10000 nM | > 10000 nM | C (C represents 1000-9999 nM) |  |  |  |  |  |  |  |  |
| Cc1nc2cc(O)c(-c3ccc4nc(N5CC[C@@H](NC6(C)CC6)C5)ccc4n3)cc2o1 [Compound 258] |  |  | < 100 nM |  |  | 100 to 1000 nM |  | C (C represents 1000-9999 nM) | < 100 nM | < 100 nM | 100 to 1000 nM | 100 to 1000 nM | < 100 nM | 100 to 1000 nM | 100 to 1000 nM | 100 to 1000 nM |
| Cc1c(O)c(-c2ccc3nc(N4CC[C@@H](NC5CC5)C4)ccc3n2)cc2cn(C)nc12 [Compound 259] |  |  | < 100 nM |  |  | < 100 nM |  | B (B represents 100-1000 nM) | < 100 nM | < 100 nM | < 100 nM | < 100 nM | < 100 nM | < 100 nM | < 100 nM | < 100 nM |
| Cc1c(O)c(-c2ccc3nc(N4CC[C@H](NC5CC5)C4)ccc3n2)cc2cn(C)nc12 [Compound 260] |  |  | < 100 nM |  |  | < 100 nM |  | B (B represents 100-1000 nM) | < 100 nM | < 100 nM | < 100 nM | < 100 nM | < 100 nM | < 100 nM | < 100 nM | < 100 nM |
| Cc1c(O)c(-c2nc(C3CCC3)c3cc(N4C[C@@H](C)N[C@@H](C)C4)ccc3n2)cc2cn(C)nc12 [Compound 790, 5-{4-cyclobutyl-6-[(3R,5S)-3,5-dimethylpiperazin-1-yl]quinazolin-2-yl}-2,7-dimethylindazol-6-ol] | > 10000 nM | 1000 to 10000 nM | 1000 to 10000 nM | 1000 to 10000 nM | 1000 to 10000 nM | 1000 to 10000 nM | > 10000 nM | C (C represents 1000-9999 nM) |  |  |  |  |  |  |  |  |
| C[C@@H]1CN(c2ccc3nc(-c4cc5cn(C)nc5cc4O)nc(C4CCC4)c3c2)C[C@H](C)N1 [Compound 791, 5-{4-cyclobutyl-6-[(3R,5S)-3,5-dimethylpiperazin-1-yl]quinazolin-2-yl}-2-methylindazol-6-ol] | > 10000 nM | 1000 to 10000 nM | 1000 to 10000 nM | 1000 to 10000 nM | 1000 to 10000 nM | 1000 to 10000 nM | > 10000 nM | B (B represents 100-1000 nM) |  |  |  |  |  |  |  |  |
| Cc1c(O)c(-c2ncc3cc(N4CCNC5(CC5)C4)ccc3n2)cc2cn(C)nc12 [Compound 792, 5-(6-{4,7-diazaspiro[2.5]octan-7-yl}quinazolin-2-yl)-2,7-dimethylindazol-6-ol] | 1000 to 10000 nM | 100 to 1000 nM | 100 to 1000 nM | 100 to 1000 nM | 100 to 1000 nM | 100 to 1000 nM | 1000 to 10000 nM | B (B represents 100-1000 nM) |  |  |  |  |  |  |  |  |
| Cc1nc(-c2cc3cn(C)nc3c(C)c2O)nc2ccc(N3CCNC4(CC4)C3)cc12 [Compound 793, 5-(6-{4,7-diazaspiro[2.5]octan-7-yl}-4-methylquinazolin-2-yl)-2,7-dimethylindazol-6-ol] | 1000 to 10000 nM | 1000 to 10000 nM | 1000 to 10000 nM | 100 to 1000 nM | 100 to 1000 nM | 100 to 1000 nM | > 10000 nM | B (B represents 100-1000 nM) |  |  |  |  |  |  |  |  |
| Cc1cn2nc(-c3ncc4cc(N5CCNC6(CC6)C5)ccc4n3)cc(C)c2n1 [Compound 795, 2-(2,8-dimethylimidazo[1,2-b]pyridazin-6-yl)-6-(4,7-diazaspiro[2.5]octan-7-yl)quinazoline] | > 10000 nM | > 10000 nM | > 10000 nM | 1000 to 10000 nM | 1000 to 10000 nM | 1000 to 10000 nM | > 10000 nM | C (C represents 1000-9999 nM) |  |  |  |  |  |  |  |  |
